Like-named read-outs stand apart in the source and are kept apart here.

The target of the assay is SARS-CoV-2 3CL protease (Severe acute respiratory syndrome coronavirus 2, UniProt P0DTD1). Put plainly: biochemical.
[1] abbreviates: 50% SARS-CoV-2 3CL protease inhibitory concentration, given as class symbols, read-out: IC50.

Take `CN1CC[C@H](n2cc3cc(Nc4nc(=O)n(Cc5ncn(C)n5)c(=O)n4Cc4cc(F)c(F)c(Cl)c4)c(Cl)cc3n2)C1=O` [II-0451]: the IC50 (IC50) was below 100 nM. On the same count and under the same terms, then `O=c1[nH]cccc1Cn1c(=O)nc(NC23CC(Nc4ncc(C(F)(F)F)cn4)(C2)C3)n(Cc2cc(F)c(F)c(F)c2)c1=O` [II-0456], with below 100 nM; and `O=c1[nH]cccc1Cn1c(=O)nc(NC23CC(Nc4ncc5ccccc5n4)(C2)C3)n(Cc2cc(F)c(F)c(F)c2)c1=O` [II-0457], with below 100 nM. Same read-out and setting: then `CN1CC[C@H](n2cc3cc(Nc4nc(=O)n(Cc5ncn(C)n5)c(=O)n4Cc4cc(F)c(F)cc4F)c(Cl)cc3n2)C1=O` [II-0465], with below 100 nM. The same measure, in the same setting: to `Cc1cncc(-n2c(=O)nc(Nc3cc4c(=O)n(C)cnc4cc3Cl)n(Cc3ccc(F)c(C#N)c3)c2=O)c1` [II-0467] belongs below 100 nM; to `Cn1cnc(Cn2c(=O)nc(NC34CC(Nc5ncc(C(F)(F)F)cn5)(C3)C4)n(Cc3cc(F)c(F)c(F)c3)c2=O)n1` [II-0470], below 100 nM; to `Cn1cnc(Cn2c(=O)nc(Nc3cc4cn(CC(F)F)nc4cc3F)n(Cc3ccc(F)c(C#N)c3)c2=O)n1` [II-0471], below 100 nM. `Cn1cnc(Cn2c(=O)nc(NC34CC(Nc5ncc6ccccc6n5)(C3)C4)n(Cc3cc(F)c(F)c(F)c3)c2=O)n1` [II-0472] had an IC50 (IC50) below 100 nM. Still for that read-out and setting: to `Cn1cnc(Cn2c(=O)nc(NC34CC(Nc5ncc(F)cn5)(C3)C4)n(Cc3cc(F)c(F)c(F)c3)c2=O)n1` [II-0473] belongs below 100 nM. The same measure, in the same setting: to `Cn1cnc(Cn2c(=O)nc(NC34CC(Nc5ncccn5)(C3)C4)n(Cc3cc(F)c(F)c(F)c3)c2=O)n1` [II-0474] belongs below 100 nM; to `O=c1[nH]cccc1Cn1c(=O)nc(NC23CC(Nc4ccccn4)(C2)C3)n(Cc2cc(F)c(F)c(F)c2)c1=O` [II-0476], below 100 nM. The same measure, in the same setting: to `Cc1cncc(-n2c(=O)nc(Nc3cc4c(=O)n(C)cnc4cc3F)n(Cc3ccc(F)c(C#N)c3)c2=O)c1` [II-0480] belongs below 100 nM; to `CNC(=O)c1cccc(C2(Nc3nc(=O)n(Cc4ccc[nH]c4=O)c(=O)n3Cc3cc(F)c(F)c(F)c3)CCC2)c1` [II-0481], 100 nM. Where the note is “IC50”, `Cn1cc2cc(Nc3nc(=O)n(-c4cnc5ccccn45)c(=O)n3Cc3ccc(F)c(C#N)c3)c(Cl)cc2n1` [II-0488] came in with an IC50 below 100 nM. Still for that read-out and setting: then `Cn1cnc(Cn2c(=O)nc(Nc3cc4sc(NCC(F)F)nc4cc3Cl)n(Cc3ccc(F)c(C#N)c3)c2=O)n1` [II-0502], with below 100 nM; and `Cn1cnc(Cn2c(=O)nc(Nc3cc4oc(N)nc4cc3Cl)n(Cc3cc(F)c(F)c(F)c3)c2=O)n1` [II-0511], with below 100 nM. The same measure, in the same setting: then `Cn1cnc(Cn2c(=O)nc(Nc3cc4cn(CCN)nc4cc3Cl)n(Cc3cc(Cl)c(F)cc3F)c2=O)n1` [II-0530], with below 100 nM; and `Cn1cnc(Cn2c(=O)nc(Nc3cc4cn([C@H]5CC[C@H](N)CC5)nc4cc3Cl)n(Cc3cc(Cl)c(F)cc3F)c2=O)n1` [II-0531], with below 100 nM; and `Cn1cnc(Cn2c(=O)nc(Nc3cc4cn(C5CCNCC5)nc4cc3Cl)n(Cc3cc(Cl)c(F)cc3F)c2=O)n1` [II-0532], with below 100 nM.

`Cn1cnc(Cn2c(=O)nc(Nc3cc4cn(CC(F)F)nc4cc3Cl)n(Cc3cc(Cl)c(F)cn3)c2=O)n1` [II-0540]: the IC50 (IC50) is below 100 nM. The compound `Cn1cnc(Cn2c(=O)nc(Nc3cc4cn(C)nc4cc3Cl)n(Cc3cc(Cl)c(F)cn3)c2=O)n1` [II-0542] came in with an IC50 (IC50) below 100 nM. Same read-out and setting: to `Cn1cnc(Cn2c(=O)nc(Nc3cc4cn(CC(F)F)nc4cc3Cl)n(Cc3ccc(F)c(C#N)c3)c2=O)n1` [II-0549] belongs below 100 nM. As to `Cn1cnc(Cn2c(=O)nc(Nc3cc4cn(CC5(N)CC5)nc4cc3Cl)n(Cc3cc(Cl)c(F)cc3F)c2=O)n1` [II-0557], the concentration for half-maximal inhibition (IC50) under setting [1] is below 100 nM. On the same count and under the same terms, to `Cn1cnc(Cn2c(=O)nc(Nc3cc4cn(CC5(N)CC5)nc4cc3Cl)n(Cc3cc(F)c(F)c(Cl)c3)c2=O)n1` [II-0558] belongs below 100 nM. Turning to `CN(C)C(=O)CCn1cc2cc(Nc3nc(=O)n(Cc4ncn(C)n4)c(=O)n3Cc3cc(F)c(F)c(Cl)c3)c(Cl)cc2n1` [II-0561], the IC50 (IC50) is below 100 nM. The same measure, in the same setting: then `Cc1cncc(-n2c(=O)nc(Nc3ccc(N=S(C)(C)=O)cc3Cl)n(Cc3ccc(F)c(C#N)c3)c2=O)c1` [II-0575], with below 100 nM; and `CC(=O)Nc1ccc(C#N)cc1Cn1c(Nc2cc3cn(C)nc3cc2Cl)nc(=O)n(-c2cncc(C)c2)c1=O` [II-0594], with 270 nM. On to `CNc1nc2cc(Cl)c(Nc3nc(=O)n(Cc4ncn(C)n4)c(=O)n3Cc3ccc(F)c(C#N)c3)cc2s1` [II-0603], for which the IC50 (IC50) was below 100 nM. The same measure, in the same setting: then `Cn1cnc(Cn2c(=O)nc(Nc3cc4cn(C)nc4cc3Cl)n(CC3CCCC3)c2=O)n1` [II-0605], with 1000 to 10000 nM. Under “IC50”, `Cn1cnc(Cn2c(=O)nc(Nc3cc4cn(C)nc4cc3Cl)n(CC3CCCCC3)c2=O)n1` [II-0606] displayed an IC50 of 100 to 1000 nM.

For `Cn1cnc(Cn2c(=O)nc(Nc3cc4cn(C)nc4cc3Cl)n(CC3CCC(F)(F)CC3)c2=O)n1` [II-0607], the IC50 (IC50) lay in the range of 100 to 1000 nM. Consider `CC(=O)Nc1snc2cc(Cl)c(Nc3nc(=O)n(Cc4ncn(C)n4)c(=O)n3Cc3cc(Cl)c(F)cc3F)cc12` [II-0610], for which the IC50 (IC50) was below 100 nM.

On to `Cc1cncc(-n2c(=O)nc(Nc3cc4cn(CCN)nc4cc3Cl)n(Cc3cc(Cl)ccc3Cl)c2=O)c1` [II-0611], for which the IC50 (IC50) is below 100 nM. Same read-out and setting: then `CNc1cncc(-n2c(=O)nc(Nc3ccc4c(c3)CCO4)n(Cc3cc(F)c(F)cc3F)c2=O)c1` [II-0612], with below 100 nM.

Regarding `CNc1cncc(-n2c(=O)nc(Nc3cc4c(cc3Cl)OCC4)n(Cc3cc(F)c(F)cc3F)c2=O)c1` [II-0613], the half-inhibitory concentration (IC50) (IC50) is below 100 nM. The same measure, in the same setting: then `Cc1cncc(-n2c(=O)nc(Nc3ccc(N=S4(=O)CCCC4)cc3C(F)(F)F)n(Cc3cc(Cl)ccc3C)c2=O)c1` [II-0614], with below 100 nM; and `Cc1cncc(-n2c(=O)nc(Nc3ccc(N=S4(=O)CCCC4)c(Cl)c3)n(Cc3cc(Cl)ccc3C)c2=O)c1` [II-0615], with below 100 nM. Still for that read-out and setting: then `Cc1cncc(-n2c(=O)nc(Nc3ccc(N=S4(=O)CCCC4)cc3F)n(Cc3cc(Cl)ccc3C)c2=O)c1` [II-0616], with below 100 nM.

`Cc1cncc(-n2c(=O)nc(Nc3ccc(N=S4(=O)CCCC4)c(Cl)c3Cl)n(Cc3cc(Cl)ccc3C)c2=O)c1` [II-0617] came in with an IC50 (IC50) below 100 nM. Same read-out and setting: then `Cc1cncc(-n2c(=O)nc(Nc3ccc(N=S4(=O)CCCC4)cc3)n(Cc3cc(Cl)ccc3C)c2=O)c1` [II-0618], with below 100 nM; and `Cc1cncc(-n2c(=O)nc(Nc3cc(Cl)c(N=S4(=O)CCCC4)cc3Cl)n(Cc3cc(Cl)ccc3C)c2=O)c1` [II-0619], with below 100 nM; and `Cc1cncc(-n2c(=O)nc(Nc3cc(F)c(N=S4(=O)CCCC4)cc3Cl)n(Cc3cc(Cl)ccc3C)c2=O)c1` [II-0620], with below 100 nM. Compound `CCS(=O)(CC)=Nc1ccc(Nc2nc(=O)n(-c3cncc(C)c3)c(=O)n2Cc2cc(Cl)ccc2C)c(Cl)c1` [II-0621] returned an IC50 (IC50) below 100 nM. Still for that read-out and setting: to `O=c1[nH]cccc1Cn1c(=O)nc(NC23CC(Nc4nc(Cl)cc(Cl)n4)(C2)C3)n(Cc2cc(F)c(F)c(F)c2)c1=O` [II-0622] belongs below 100 nM; to `Cc1cncc(-n2c(=O)nc(Nc3cc(C)c(N=S4(=O)CCCC4)cc3Cl)n(Cc3cc(Cl)ccc3C)c2=O)c1` [II-0623], below 100 nM; to `Cc1cncc(-n2c(=O)nc(Nc3ccc(N=S4(=O)CCCC4)cc3Cl)n(Cc3cc(Cl)ccc3C)c2=O)c1` [II-0624], below 100 nM. For `Cc1cncc(-n2c(=O)nc(Nc3ccc(N=S(C)(C)=O)cc3Cl)n(Cc3cc(Cl)ccc3C)c2=O)c1` [II-0625], the half-maximal inhibitory concentration (IC50) (IC50) was below 100 nM. Still for that read-out and setting: then `COc1cc(OC)nc(NC23CC(Nc4nc(=O)n(CC5=CC=CNC5C)c(=O)n4Cc4cc(F)c(F)c(F)c4)(C2)C3)n1` (stereo not drawn) [II-0626], with below 100 nM; and `Cc1cc(C)nc(NC23CC(Nc4nc(=O)n(Cc5ccc[nH]c5=O)c(=O)n4Cc4cc(F)c(F)c(F)c4)(C2)C3)n1` [II-0627], with below 100 nM; and `Cc1cncc(-n2c(=O)nc(Nc3cc4cn([C@H]5CC[C@H](N)CC5)nc4cc3Cl)n(Cc3cc(Cl)ccc3Cl)c2=O)c1` [II-0628], with below 100 nM.

`Cc1cncc(-n2c(=O)nc(Nc3cc(C)c(N=S(C)(C)=O)cc3Cl)n(Cc3cc(Cl)ccc3C)c2=O)c1` [II-0629] registered an IC50 (IC50) below 100 nM. For the compound `Cc1ccc(Cl)cc1Cn1c(NC23CC(Nc4ncccn4)(C2)C3)nc(=O)n(Cc2ccncc2C)c1=O` [II-0630], under “IC50”, the IC50 was below 100 nM. For the compound `Cc1cncc(-n2c(=O)nc(Nc3ccc(N=S(C)(C)=O)cc3C)n(Cc3cc(Cl)ccc3C)c2=O)c1` [II-0631], the IC50 (IC50) is below 100 nM.

On to `Cc1cncc(-n2c(=O)nc(Nc3ccc(N=S(C)(C)=O)cc3OC(F)(F)F)n(Cc3cc(Cl)ccc3C)c2=O)c1` [II-0632], for which the 50% inhibitory concentration (IC50) (IC50) was below 100 nM. Same read-out and setting: to `COc1cc(N=S(C)(C)=O)ccc1Nc1nc(=O)n(-c2cncc(C)c2)c(=O)n1Cc1cc(Cl)ccc1C` [II-0633] belongs below 100 nM; to `Cn1cnc(Cn2c(=O)nc(Nc3cc4cn(C)nc4cc3Cl)n(Cc3cc(F)c(F)cc3C(F)(F)F)c2=O)n1` [II-0634], below 100 nM; to `Cn1cnc(Cn2c(=O)nc(Nc3cc4cn(C)nc4cc3Cl)n(Cc3ccc(F)c(F)c3)c2=O)n1` [II-0635], below 100 nM. Same read-out and setting: then `CCOC(=O)c1cc(F)c(F)cc1Cn1c(Nc2cc3cn(C)nc3cc2Cl)nc(=O)n(Cc2ncn(C)n2)c1=O` [II-0636], with below 100 nM; and `Cc1cnn(Cc2cc(F)c(F)cc2Cn2c(Nc3cc4cn(C)nc4cc3Cl)nc(=O)n(Cc3ncn(C)n3)c2=O)c1` [II-0637], with below 100 nM. The same measure, in the same setting: then `CCOc1c(F)cc(F)cc1Cn1c(Nc2cc3cn(C)nc3cc2Cl)nc(=O)n(Cc2ncn(C)n2)c1=O` [II-0638], with below 100 nM. Compound `CCc1c(F)cc(Cl)cc1Cn1c(Nc2cc3cn(C)nc3cc2Cl)nc(=O)n(Cc2ncn(C)n2)c1=O` [II-0639] had an IC50 (IC50) below 100 nM. Same read-out and setting: then `Cn1cnc(Cn2c(=O)nc(Nc3cc4cn(C)nc4cc3Cl)n(Cc3cc(Cl)cc(F)c3Cl)c2=O)n1` [II-0640], with below 100 nM; and `Cn1cnc(Cn2c(=O)nc(Nc3cc4cn(C)nc4cc3Cl)n(Cc3cc(Cl)cc(F)c3F)c2=O)n1` [II-0641], with below 100 nM.

The values above are taken from patent publication US12559474B2, “Triazine derivatives having virus replication inhibitory activity and pharmaceutical composition comprising the same” (priority 2021, dated 2026).
